These results are taken from patent US10653667B2, “Drug for preventing, treating or preventing metastasis of giant cell tumor that occurs in bone or soft parts, chondrosarcoma, or osteosarcoma, local injection for arterial embolization, and artificial bone” (NIPPON CHEMIPHAR CO., LTD, priority 2013, dated 2020).

SMILES strings stand for the structures.

One test concerns SW1353 cells. Kind of test: Cell invasion of SW1353 cells cultured beforehand with or without GW9662. It is filed as cell-based, human. The procedure:
Cells of the human chondrosarcoma cell line, SW1353, were cultured in the same manner as that of Example 1 until they became sub-confluent, then, GW9662, which is an irreversible antagonist of PPARγ, was added to the cells at a final concentration of 1 μM, and the cells were cultured for 60 minutes. Then, zaltoprofen was added to the cells at various concentrations of 200, 300, and 400 μM, cell invasion was measured with Matrigel™ Invasion Chamber (BD Bioscience, catalog number 354480) 24 hours afterward, and the result was compared with the degree of cell invasion observed with addition of only DMSO not dissolving GW9662 (FIG. 78).

Another test deals with H-EMC-SS cells. The conditions noted are these: inventors' earlier reports; cited from earlier work.
In test [1] the test system is PPARγ expression in giant cell tumor of bone (GCTB). The conditions noted are these: patient who had taken zaltoprofen for four weeks at 240 mg per day; inventors' earlier reports; cited from earlier work.
The test system of test [2] is synovial cells derived from rheumatism patients. The conditions noted are these: cited from earlier work.

Turning to `CC(C(=O)O)c1ccc2c(c1)CC(=O)c1ccccc1S2` (stereo not shown) [zaltoprofen], the “suppression of cell invasion of SW1353 cells” value in the test with SW1353 cells (400 μM zaltoprofen, 24 hours, without GW9662) is listed as “higher than 80%”. Further, in the test on SW1353 cells (400 zaltoprofen, GW9662 1 μM), the “suppression of the cell invasion after preincubation with GW9662” value is “substantially eliminated by GW9662”. The “apoptosis in H-EMC-SS cells” value in the test with H-EMC-SS cells is listed as “induced apoptosis”. Further, the “cells observed instead of the tumor” value in test [1] is reported as “fat cell-like cells showing enhanced expression of PPARγ were observed”. Further, in test [2], the “activation of PPARγ” value is given as “activated PPARγ”, the apoptosis entry was “caused apoptosis” and the “suppression of proliferation of the cells” value was “suppress proliferation”.
